Experimental data taken from patent publication US20070232615A1, “Chemical Compounds” (priority 2004, published 2007).

Test system: HIV
Experiment: HOS HIV infectivity assay (Table 2, strain not given)
Type: cell-based
Conditions: Human immunodeficiency virus 1, read-out: Activity Level
Procedure: HOS HIV-1 Infectivity Assay
Compounds were profiled against two HIV-1 viruses, the M-tropic (CCR5 utilizing) Ba-L strain and the T-tropic (CXCR4 utilizing) IIIB strain. Both viruses were propagated in human peripheral blood lymphocytes. Compounds were tested for there ability to block infection of the HOS cell line (expressing hCXCR4/hCCR5/hCD4/pHIV-LTR-luciferase) by either HIV-1 Ba-L or HIV-1 IIIB. Compound cytotoxicity was also examined in the absence of virus addition.
HOS HIV-1 Infectivity Assay Format
HOS cells (expressing hCXCR4/hCCR5/hCD4/pHIV-LTR-luciferase) were harvested and diluted in Dulbeccos modified Eagles media supplemented with 2% FCS and non-essential amino acid to a concentration of 60,000 cells/ml. The cells were plated into 96-well plates (100 ul per well) and the plates were placed in a tissue culture incubator (37° C.; 5% CO2/95% air) for a period of 24 h.
Subsequently, 50 ul of the desired drug solution (4 times the final concentration) was added to each well and the plates were returned to the tissue culture incubator (37° C.; 5% CO2/95% air) for 1 h. Following this incubation 50 ul of diluted virus was added to each well (approximately 2 million RLU per well of virus). The plates were returned to the tissue culture incubator (37° C.; 5% CO2/95% air) and were incubated for a further 96 h.
Following this incubation the endpoint for the virally infected cultures was quantified following addition of Steady-Glo Luciferase assay system reagent (Promega, Madison, Wis.). Cell viability or non-infected cultures was measured using a CellTiter-Glo luminescent cell viability assay system (Promega, Madison, Wis.). All luminescent readouts are performed on a Topcount luminescence detector (Packard, Meridien, Conn.).

| Compound | IC50 [nM] |
| --- | --- |
| COc1ccc([C@H](C)N(Cc2cn3c(N4CC[C@@H](N(C)C)C4)cccc3n2)[C@H]2CCCc3cccnc32)cc1 [Example 95, (8S)—N-({5-[(3R)-3-(Dimethylamino)-1-pyrrolidinyl]imidazo[1,2-a]pyridin-2-yl}methyl)-N-{(1S)-1-[4-(methyloxy)phenyl]ethyl}-5,6,7,8-tetrahydro-8-quinolinamine] | 100 to 500 |
| CN1CCC(N(C)c2cccc3nc(CN(C)[C@H]4CCCc5cccnc54)cn23)CC1 [Example 87, (8S)—N-Methyl-N-({5-[methyl(1-methyl-4-piperidinyl)amino]imidazo[1,2-a]pyridin-2-yl}methyl)-5,6,7,8-tetrahydro-8-quinolinamine] | < 100 |
| CN1CCN(c2cccc3nc(CN(Cc4ccccc4Br)[C@H]4CCCc5cccnc54)cn23)CC1 [Example 63, (8S)—N-[(2-Bromophenyl)methyl]-N-{[5-(4-methyl-1-piperazinyl)imidazo[1,2-a]pyridin-2-yl]methyl}-5,6,7,8-tetrahydro-8-quinolinamine] | 100 to 500 |
| CN(Cc1cn2c(N)cccc2n1)C1CCCc2cccnc21 (centres unmarked) [Example 43, N-[(5-Aminoimidazo[1,2-a]pyridin-2-yl)methyl]-N-methyl-5,6,7,8-tetrahydro-8-quinolinamine] | 100 to 500 |
| CN(Cc1cn2c(NC(=O)c3cccnc3)cccc2n1)C1CCCc2cccnc21 (centres unmarked) [Example 44, N-(2-{[Methyl(5,6,7,8-tetrahydro-8-quinolinyl)amino]methyl}imidazo[1,2-a]pyridin-5-yl)-3-pyridinecarboxamide] | 500 to 10000 |
| COc1ccc(CN(Cc2cn3c(N4CCN(C)CC4)cccc3n2)[C@H]2CCCc3cccnc32)cc1 [Example 74, (8S)—N-{[4-(Methyloxy)phenyl]methyl}-N-{[5-(4-methyl-1-piperazinyl)imidazo[1,2-a]pyridin-2-yl]methyl}-5,6,7,8-tetrahydro-8-quinolinamine] | < 100 |
| CN(C)Cc1cccc(-c2cccc3nc(CN(C)C4CCCc5cccnc54)cn23)c1 (centres unmarked) [Example 41, N-[(5-{3-[(Dimethylamino)methyl]phenyl}imidazo[1,2-a]pyridin-2-yl)methyl]-N-methyl-5,6,7,8-tetrahydro-8-quinolinamine] | 100 to 500 |
| CCN(Cc1cn2c(N3CC[C@@H](N(C)C)C3)cccc2n1)[C@H]1CCCc2cccnc21 [Example 96, (8S)—N-({5-[(3R)-3-(Dimethylamino)-1-pyrrolidinyl]imidazo[1,2-a]pyridin-2-yl}methyl)-N-ethyl-5,6,7,8-tetrahydro-8-quinolinamine] | < 100 |
| CN(C)C1CCN(c2cccc3nc(CN(C)C4CCCc5cccnc54)cn23)CC1 (centres unmarked) [Example 38, N-({5-[4-(Dimethylamino)-1-piperidinyl]imidazo[1,2-a]pyridin-2-yl}methyl)-N-methyl-5,6,7,8-tetrahydro-8-quinolinamine] | < 100 |
| CN(C)[C@@H]1CCN(c2cccc3nc(CN(CC4CC4)[C@H]4CCCc5cccnc54)cn23)C1 [Example 99, (8S)—N-(Cyclopropylmethyl)-N-({5-[(3R)-3-(dimethylamino)-1-pyrrolidinyl]imidazo[1,2-a]pyridin-2-yl}methyl)-5,6,7,8-tetrahydro-8-quinolinamine] | < 100 |
| CN1CCN(c2cccc3nc(CN(Cc4ccccc4F)[C@H]4CCCc5cccnc54)cn23)CC1 [Example 60, (8S)—N-[(2-Fluorophenyl)methyl]-N-{[5-(4-methyl-1-piperazinyl)imidazo[1,2-a]pyridin-2-yl]methyl}-5,6,7,8-tetrahydro-8-quinolinamine] | < 100 |
| COc1ccccc1CN(Cc1cn2c(N3CCN(C)CC3)cccc2n1)[C@H]1CCCc2cccnc21 [Example 72, (8S)—N-{[2-(Methyloxy)phenyl]methyl}-N-{[5-(4-methyl-1-piperazinyl)imidazo[1,2-a]pyridin-2-yl]methyl}-5,6,7,8-tetrahydro-8-quinolinamine] | < 100 |
| CN1CCN(c2cccc3nc(CN(C)[C@@H]4CCCc5cccnc54)cn23)CC1 [Example 52, (8R)—N-Methyl-N-{[5-(4-methyl-1-piperazinyl)imidazo[1,2-a]pyridin-2-yl]methyl}-5,6,7,8-tetrahydro-8-quinolinamine] | < 100 |
| CN(C)C1CN(c2cccc3nc(CN(C)C4CCCc5cccnc54)cn23)C1 (centres unmarked) [Example 26, N-({5-[3-(Dimethylamino)-1-azetidinyl]imidazo[1,2-a]pyridin-2-yl}methyl)-N-methyl-5,6,7,8-tetrahydro-8-quinolinamine] | 100 to 500 |
| Cc1ccccc1CN(Cc1cn2c(N3CCN(C)CC3)cccc2n1)[C@H]1CCCc2cccnc21 [Example 66, (8S)—N-[(2-Methylphenyl)methyl]-N-{[5-(4-methyl-1-piperazinyl)imidazo[1,2-a]pyridin-2-yl]methyl}-5,6,7,8-tetrahydro-8-quinolinamine] | < 100 |
| CNC1CCN(c2cccc3nc(CN(C)C4CCCc5cccnc54)cn23)CC1 (centres unmarked) [Example 36, N-Methyl-N-({5-[4-(methylamino)-1-piperidinyl]imidazo[1,2-a]pyridin-2-yl}methyl)-5,6,7,8-tetrahydro-8-quinolinamine] | < 100 |
| COc1cccc(CN(Cc2cn3c(N4CCN(C)CC4)cccc3n2)[C@H]2CCCc3cccnc32)c1 [Example 73, (8S)—N-{[3-(Methyloxy)phenyl]methyl}-N-{[5-(4-methyl-1-piperazinyl)imidazo[1,2-a]pyridin-2-yl]methyl}-5,6,7,8-tetrahydro-8-quinolinamine] | < 100 |
| CN(Cc1cn2c(N3CCC(N)CC3)cccc2n1)[C@H]1CCCc2cccnc21 [Example 80, (8S)—N-{[5-(4-Amino-1-piperidinyl)imidazo[1,2-a]pyridin-2-yl]methyl}-N-methyl-5,6,7,8-tetrahydro-8-quinolinamine] | < 100 |
| CN1CCN(c2cccc3nc(CNC4CCCc5cccnc54)cn23)CC1 (centres unmarked) [Example 39, N-{[5-(4-Methyl-1-piperazinyl)imidazo[1,2-a]pyridin-2-yl]methyl}-5,6,7,8-tetrahydro-8-quinolinamine] | < 100 |

More lines, now with the values ahead:

| IC50 [nM] | Compound |
| --- | --- |
| < 100 | CC(C)N(Cc1cn2c(N3CCN(C)CC3)cccc2n1)[C@H]1CCCc2cccnc21 [Example 55, (8S)—N-(1-Methylethyl)-N-{[5-(4-methyl-1-piperazinyl)imidazo[1,2-a]pyridin-2-yl]methyl}-5,6,7,8-tetrahydro-8-quinolinamine] |
| < 100 | CN1CCN(c2cccc3nc(CN(Cc4cccc(C(F)(F)F)c4)[C@H]4CCCc5cccnc54)cn23)CC1 [Example 70, (8S)—N-{[5-(4-Methyl-1-piperazinyl)imidazo[1,2-a]pyridin-2-yl]methyl}-N-{[3-(trifluoromethyl)phenyl]methyl}-5,6,7,8-tetrahydro-8-quinolinamine] |
| < 100 | CN(Cc1cn2c(N3CC(N)C3)cccc2n1)C1CCCc2cccnc21 (centres unmarked) [Example 25, N-{[5-(3-Amino-1-azetidinyl)imidazo[1,2-a]pyridin-2-yl]methyl}-N-methyl-5,6,7,8-tetrahydro-8-quinolinamine] |
| < 100 | CN1CCN(c2cccc3nc(CN(Cc4cccc(F)c4)[C@H]4CCCc5cccnc54)cn23)CC1 [Example 61, (8S)—N-[(3-Fluorophenyl)methyl]-N-{[5-(4-methyl-1-piperazinyl)imidazo[1,2-a]pyridin-2-yl]methyl}-5,6,7,8-tetrahydro-8-quinolinamine] |
| < 100 | CN1CCCN(c2cccc3nc(CN(C)[C@H]4CCCc5cccnc54)cn23)CC1 [Example 85, (8S)—N-Methyl-N-{[5-(4-methylhexahydro-1H-1,4-diazepin-1-yl)imidazo[1,2-a]pyridin-2-yl]methyl}-5,6,7,8-tetrahydro-8-quinolinamine] |
| < 100 | CC(C)N(Cc1cn2c(N3CCNCC3)cccc2n1)C1CCCc2cccnc21 (centres unmarked) [Example 21, N-(1-Methylethyl)-N-{[5-(1-piperazinyl)imidazo[1,2-a]pyridin-2-yl]methyl}-5,6,7,8-tetrahydro-8-quinolinamine] |
| < 100 | CN1CCN(c2cccc3nc(CN(C4CC4)C4CCCc5cccnc54)cn23)CC1 (centres unmarked) [Example 34, N-Cyclopropyl-N-{[5-(4-methyl-1-piperazinyl)imidazo[1,2-a]pyridin-2-yl]methyl}-5,6,7,8-tetrahydro-8-quinolinamine] |
| < 100 | CN(Cc1cn2c(OCCN3CCCCC3)cccc2n1)[C@H]1CCCc2cccnc21 [Example 106, (8S)—N-Methyl-N-[(5-{[2-(1-piperidinyl)ethyl]oxy}imidazo[1,2-a]pyridin-2-yl)methyl]-5,6,7,8-tetrahydro-8-quinolinamine] |
| < 100 | CC(C)CN(Cc1cn2c(N3CCN(C)CC3)cccc2n1)[C@H]1CCCc2cccnc21 [Example 53, (8S)—N-{[5-(4-Methyl-1-piperazinyl)imidazo[1,2-a]pyridin-2-yl]methyl}-N-(2-methylpropyl)-5,6,7,8-tetrahydro-8-quinolinamine] |
| < 100 | Cc1cccc(CN(Cc2cn3c(N4CCN(C)CC4)cccc3n2)[C@H]2CCCc3cccnc32)c1 [Example 67, (8S)—N-[(3-Methylphenyl)methyl]-N-{[5-(4-methyl-1-piperazinyl)imidazo[1,2-a]pyridin-2-yl]methyl}-5,6,7,8-tetrahydro-8-quinolinamine] |
